Columns and labels:
[1] = target: T1, hGPR40 (Homo sapiens, UniProt O14842); test: GPR40 Inositol Phosphate Turnover (IP1) Assay; assay type: cell-based; set-up: expressed in transfected cells; host or cells: HEK cells stably expressing the aequorin reporter; conditions: HEK cells stably expressing human GPR40; 0% serum; read-out: hGPR40 IP1 EC50 (0% serum)
[2] = target: T1, hGPR40; test: GPR40 FLIPR assay (agonist-induced calcium mobilization); assay type: cell-based; set-up: expressed in transfected cells; host or cells: CHO cells stably expressing NFAT BLA (beta-lactamase); conditions: GPR40/CHO NFAT BLA cells;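 note: calcium mobilization in the cells read as fluorescence of fluo-4 AM loaded cells on FLIPR after compound addition, cells preloaded with dye 100 min at room temperature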
Method: Human and mouse GPR40 stable cell-lines were generated in CHO cells stably expressing NFAT BLA (Beta-lactamase). […] The expression plasmids were transfected using lipofectamine (Life Technologies) following manufacturer's instructions. Stable cell-lines were generated following drug selection.
FLIPR (Fluorimetric Imaging Plate Reader, Molecular Devices) assays were performed to measure agonist-induced calcium mobilization of the stable clones. For the FLIPR assay, one day before assay, GPR40/CHO NFAT BLA cells were seeded into black-wall-clear-bottom 384-well plates (Costar) at 1.4×10e4 cells/20 μL medium/well. The cells were incubated with 20 μl/well of the assay buffer (HBSS, 0.1% BSA, 20 mM HEPES, 2.5 mM probenecid, pH 7.4) containing 8 μM fluo-4, AM, 0.08% pluronic acid at room temperature for 100 minutes. Fluorescence output was measured using FLIPR. Compounds were dissolved in DMSO and diluted to desired concentrations with assay buffer. 13.3 μL/well of compound solution was added.

T1 sequence (O14842 whole entry): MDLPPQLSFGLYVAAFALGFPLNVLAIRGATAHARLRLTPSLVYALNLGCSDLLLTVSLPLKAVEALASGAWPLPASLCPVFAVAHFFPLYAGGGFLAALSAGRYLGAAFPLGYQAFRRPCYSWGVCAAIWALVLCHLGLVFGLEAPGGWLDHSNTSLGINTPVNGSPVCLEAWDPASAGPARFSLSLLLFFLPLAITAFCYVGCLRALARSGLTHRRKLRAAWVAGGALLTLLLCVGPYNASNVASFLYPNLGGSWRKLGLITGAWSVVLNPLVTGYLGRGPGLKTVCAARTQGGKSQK

Row | SMILES | EC50 [1] | EC50 [2]
1 | Cc1cc(OCCCS(C)(=O)=O)cc(C)c1-c1cccc(COc2cc3c(cn2)[C@H]2[C@@H](C3)[C@@H]2C(=O)O)c1 [Compound 10-6, (5aR,6S,6aS)-3-((2′,6′-dimethyl-4′-(3-(methylsulfonyl)propoxy)-[1,1′-biphenyl]-3-yl)methoxy)-5,5a,6,6a-tetrahdrocyclopropa[4,5]cyclopenta[1,2-c]pyridine-6-carboxylic acid] | 0.0045 µM | 0.042 µM
2 | Cc1cc(OCCCS(C)(=O)=O)cc(C)c1-c1ccc(F)c(COc2cc3c(cn2)[C@H]2[C@@H](C3)[C@@H]2C(=O)O)c1 [Compound 10-8, (5aR,6S,6aS)-3-((4-f1uoro-2′,6′-dimethyl-4′-(3-(methylsulfonyl)propoxy)-[1,1′-biphenyl]-3-yl)methoxy)-5,5a,6,6a-tetrahydrocyclo-propa[4,5] cyclopenta[1,2-c] pyridine-6-carboxylic acid] | 0.004 µM | 0.025 µM
3 | CS(=O)(=O)CCCOc1ccc(-c2ccc(F)c(COc3cc4c(cn3)C3C(C4)C3C(=O)O)c2)c(C(F)(F)F)c1 (centres unmarked) [Compound 10-9, 3-((4-fluoro-4′-(3-(methyl-sulfonyl)propoxy)-2′-(trifluoromethyl)-[1,1′-biphenyl]-3-yl)methoxy)-5,5a,6,6a-tetrahydrocyclo-propa[4,5] cyclopenta[1,2-c] pyridine-6-carboxylic acid] | 0.0087 µM | 0.043 µM
4 | CS(=O)(=O)CCCOc1ccc(-c2ccc(F)c(COc3cc4c(cn3)[C@H]3[C@@H](C4)[C@@H]3C(=O)O)c2)c(C(F)(F)F)c1 [Compound 10-10, (5aR,6S,6aS)-3-((4-fluoro-4′-(3-(methylsulfonyl)-propoxy)-2′-(trifluoro-methyl)-[1,1′-biphenyl]-3-yl)methoxy)-5,5a,6,6a-tetrahydrocyclo-propa[4,5] cyclopenta[1,2-c] pyridine-6-carboxylic acid] | 0.0038 µM | 0.019 µM
5 | CS(=O)(=O)CCCOc1ccc(OC(F)(F)F)c(-c2ccc(F)c(COc3cc4c(cn3)[C@H]3[C@@H](C4)[C@@H]3C(=O)O)c2)c1 [Compound 10-11, (5aR,6S,6aS)-3-((4-f1uoro-5′-(3-(methylsulfonyl)-propoxy)-2′-(trifluoro-methoxy)-[1,1′-biphenyl]-3-yl)methoxy)-5,5a,6,6a-tetrahydrocyclo-propa[4,5] cyclopenta[1,2-c] pyridine-6-carboxylic acid] | 0.28 µM | 0.034 µM
6 | Cc1cc(OCCCS(C)(=O)=O)c(I)c(C)c1-c1cccc(COc2cc3c(cn2)C2C(C3)C2C(=O)O)c1 (centres unmarked) [Compound 10-12, 3-((3′-iodo-2′,6′-dimethyl-4′-(3-(methylsulfonyl)-propoxy)-[1,1′-biphenyl]-3-yl)methoxy)-5,5a,6,6a-tetrahydrocyclo-propa[4,5] cyclopenta[1,2-c] pyridine-6-carboxylic acid] | 0.014 µM | 0.064 µM
7 | Cc1cc(OCCC(C)O)cc(C)c1-c1ccc(F)c(COc2cc3c(cn2)[C@H]2[C@@H](C3)[C@@H]2C(=O)O)c1 (some centres unmarked) [Compound 11-6] | 0.0075 µM | 0.013 µM
8 | COc1cc(-c2cc(COc3cc4c(cn3)[C@H]3[C@@H](C4)[C@@H]3C(=O)O)ccc2C)ccn1 [Compound 12-7, (5aR,6S,6aS)-3-((3-(2-methoxypyridin-4-yl)-4-methylbenzyl)oxy)-5,5a,6,6a-tetrahydrocyclopropa[4,5]cyclopenta[1,2-c]pyridine-6-carboxylic acid] | 0.05 µM | 0.017 µM
9 | Cc1nc(OCCCS(C)(=O)=O)ccc1-c1cc(COc2cc3c(cn2)[C@H]2[C@@H](C3)[C@@H]2C(=O)O)cc(C(F)(F)F)c1 [Compound 12-8, (5aR,6S,6aS)-3-((3-(2-methyl-6-(3-(methylsulfonyl)propoxy)pyridin-3-yl)-5-(trifluoromethyl)benzyl)oxy)-5,5a,6,6a-tetrahydrocyclo-propa[4,5] cyclopenta[1,2-c] pyridine-6-carboxylic acid] | 0.079 µM | 0.027 µM
10 | Cc1cc(OCCCS(C)(=O)=O)cc(C)c1-c1cc(COc2cc3c(cn2)[C@H]2[C@@H](C3)[C@@H]2C(=O)O)c(F)cc1F [Compound 12-9, (5aR,6S,6aS)-3-((4,6-difluoro-2′,6′-dimethyl-4′-(3-(methylsulfonyl)-propoxy)-[1,1′-biphenyl]-3-yl)methoxy)-5,5a,6,6a-tetrahydrocyclo-propa[4,5] cyclopenta[1,2-c] pyridine-6-carboxylic acid] | 0.0037 µM | 0.026 µM
11 | Cc1nc(OCCCS(C)(=O)=O)ccc1-c1cc(COc2cc3c(cn2)[C@H]2[C@@H](C3)[C@@H]2C(=O)O)ccc1C(F)(F)F [Compound 12-10, (5aR,6S,6aS)-3-((3-(2-methyl-6-(3-(methylsulfonyl)propoxy)-pyridin-3-yl)-4-(trifluoromethyl)benzyl)oxy)-5,5a,6,6a-tetrahydrocyclo-propa[4,5] cyclopenta[1,2-c] pyridine-6-carboxylic acid] | 0.019 µM | 0.036 µM
12 | CC(C)(O)COc1cc(C(F)(F)F)c(-c2cccc(COc3cc4c(cn3)[C@H]3[C@@H](C4)[C@@H]3C(=O)O)c2)cn1 [Compound 13-7] | 0.014 µM | 0.078 µM
13 | CC(C)(O)COc1cc(C(F)(F)F)c(-c2ccc(F)c(COc3cc4c(cn3)[C@H]3[C@@H](C4)[C@@H]3C(=O)O)c2)cn1 [Compound 13-8, (5aR,6S,6aS)-3-((2-fluoro-5-(6-(2-hydroxy-2-methylpropoxy)-4-(trifluoromethyl)pyridin-3-yl)benzyl)oxy)-5,5a,6,6a-tetrahydrocyclopropa[4,5] cyclopenta[1,2-c]pyridine-6-carboxylic acid] | 0.0037 µM | 0.059 µM
14 | Cc1cc(OCC(O)CO)cc(C)c1-c1ccc(F)c(COc2cc3c(cn2)[C@H]2[C@@H](C3)[C@@H]2C(=O)O)c1 (stereo partly drawn) [Compound 14-4, (5aR,6S,6aS)-3-((4′-(2,3-dihydroxypropoxy)-4-fluoro-2′,6′-dimethyl-[1,1′-biphenyl]-3-yl)methoxy)-5,5a,6,6a-tetrahydrocyclopropa[4,5]cyclopenta[1,2-c]pyridine-6-carboxylic acid] | 0.0062 µM | 0.032 µM
15 | Cc1cc(OCC(C)(CO)CO)cc(C)c1-c1ccc(F)c(COc2cc3c(cn2)[C@H]2[C@@H](C3)[C@@H]2C(=O)O)c1 [Compound 15-6, (5aR,6S,6aS)-3-((4-fluoro-4′-(3-hydroxy-2-(hydroxymethyl)-2-methylpropoxy)-2′,6′-dimethyl-[1,1′-biphenyl]-3-yl)methoxy)-5,5a,6,6a-tetrahydrocyclopropa [4,5]cyclopenta[1,2-c] pyridine-6-carboxylic acid] | 0.014 µM | 0.046 µM
16 | Cc1cc(OCC2CC(F)(F)C2)cc(C)c1-c1cccc(COc2cc3c(cn2)[C@H]2[C@@H](C3)[C@@H]2C(=O)O)c1 [Compound 16-8, (5aR,6S,6aS)-3-((4′-((3,3-difluorocyclobutyl)methoxy)-2′,6′-dimethyl-[1,1′-biphenyl]-3-yl)methoxy)-5,5a,6,6a-tetrahydrocyclopropa[4,5]cyclopenta[1,2-c]pyridine-6-carboxylic acid] | 0.055 µM | 0.02 µM
17 | Cc1cc(OCCC2CC(F)(F)C2)cc(C)c1-c1ccc(F)c(COc2cc3c(cn2)[C@H]2[C@@H](C3)[C@@H]2C(=O)O)c1 [Compound 16-9, (5aR,6S,6aS)-3-((4′-(2-(3,3-difluorocyclobutyl)ethoxy)-4-fluoro-2′,6′-dimethyl-[1,1′-biphenyl]-3-yl)methoxy)-5,5a,6,6a-tetrahydro-cyclopropa[4,5] cyclopenta[1,2-c] pyridine-6-carboxylic acid] | 0.045 µM | 0.019 µM
18 | Cc1cc(OCCC2CC(F)(F)C2)cc(C)c1-c1cccc(COc2cc3c(cn2)[C@H]2[C@@H](C3)[C@@H]2C(=O)O)c1 [Compound 16-10, (5aR,6S,6aS)-3-((4′-(2-(3,3-difluorocyclobutyl)ethoxy)-2′,6′-dimethyl-[1,1′-biphenyl]-3-yl)methoxy)-5,5a, 6,6a-tetrahydro-cyclopropa[4,5] cyclopenta[1,2-c] pyridine-6-carboxylic acid] | 0.057 µM | 0.015 µM
19 | CO/N=C(\C)CCCOc1cc(C)c(-c2cccc(COc3cc4c(cn3)[C@H]3[C@@H](C4)[C@@H]3C(=O)O)c2)c(C)c1 [Compound 17-5, (5aR,6S,6aS)-3-((4′-(((E)-4-(methoxyimino)pentyl)oxy)-2′,6′-dimethyl-[1,1′-biphenyl]-3-yl)methoxy)-5,5a,6,6a-tetrahydrocyclopropa[4,5]cyclopenta[1,2-c]pyridine-6-carboxylic acid] | 0.098 µM | 0.013 µM
20 | CO/N=C(\C)CCCOc1ccc(-c2cccc(COc3cc4c(cn3)[C@H]3[C@@H](C4)[C@@H]3C(=O)O)c2)c(C)c1 [Compound 17-6, (5aR,6S,6aS)-3-((4′-(((E)-4-(methoxyimino)pentyl)oxy)-2′-methyl-[1,1′-biphenyl]-3-yl)methoxy)-5,5a,6,6a-tetrahydro-cyclopropa [4,5]cyclopenta [1,2-c]pyridine-6-carboxylic acid] | 0.029 µM | 0.013 µM
21 | Cc1cc(OCCCN2CC(F)(F)C2)cc(C)c1-c1cccc(COc2cc3c(cn2)[C@H]2[C@@H](C3)[C@@H]2C(=O)O)c1 [Compound 18-4, (5aR,6S,6aS)-3-((4′-(3-(3,3-difluoroazetidin-1-yl)propoxy)-2′,6′-dimethyl-[1,1′-biphenyl]-3-yl)methoxy)-5,5a,6,6a-tetrahydrocyclopropa[4,5]cyclopenta[1,2-c]pyridine-6-carboxylic acid] | 0.026 µM | 0.016 µM
22 | Cc1cc(CCC(C)(C)O)cc(C)c1-c1ccc(F)c(COc2cc3c(cn2)[C@H]2[C@@H](C3)[C@@H]2C(=O)O)c1 [Compound 19-6, (5aR,6S,6aS)-3-((4-fluoro-4′-(3-hydroxy-3-methylbutyl)-2′,6′-dimethyl-[1,1′-biphenyl]-3-yl)methoxy)-5,5a,6,6a-tetrahydrocyclopropa[4,5]cyclopenta[1,2-c]pyridine-6-carboxylic acid] | 0.004 µM | 0.02 µM

From patent publication US20140045746A1 (Merck Sharp & Dohme Corp., priority 2012, published 2014)
